≈ marks a conversion by molar mass, not a printed value. Read-outs that look alike come from different tables or passages of the source.
What was measured:
B16F10 = experiment: In vitro tumour cell cytotoxicity, colorimetric MTT assay, 72 h; format: cell-based, murine; conditions: 72 h exposure
A549 = experiment: as above; format: cell-based, human; conditions: 72 h exposure
HT-29 = experiment: as above; format: cell-based, human; conditions: 72 h exposure
[1] = Pharmacokinetics following i.p. dosing in mice; conditions: for t1/2 / Cmax / Tmax / AUC / AUC value (rounded) / Cmax (rounded): 20 mg kg-1 i.p.; for t1/2 / Cmax / Tmax / AUC: male CD-1 mice; for t1/2 / AUC / AUC value (rounded) / Cmax (rounded): plasma; for Cmax / Tmax: plasma (Table VI); for AUC: 0-12 h, trapezoidal (Table VI); for AUC value (rounded) / Cmax (rounded): mice; for Serum concentrations compared with paclitaxel: at equal dosages
[2] = test system: A549, HT-29, B16F10 and P388 tumour cells; experiment: In vitro cytotoxicity across the four tumour cell lines, compared with paclitaxel; format: cell-based; conditions: human and murine tumour cells
[3] = test system: human MX-1 xenograft solid tumour; conditions: for Cure rate / Delay in tumour growth compared with untreated controls: once daily on days 1-5 after inoculation
P388 = experiment: In vitro tumour cell cytotoxicity, colorimetric MTT assay, 72 h; format: cell-based, murine; conditions: 72 h exposure
murine M109 solid tumour = experiment: In vivo efficacy vs subcutaneous M109 solid tumour; conditions: for Days (1.0 g): days to reach mean tumour mass = 1.0 g ± s.d. / Delay (1.0 g): delay to reach mean tumour mass = 1.0 g, compared with untreated / Per cent cures (mice with no palpable tumours, day 60) / Per cent toxicity / TWI (per cent tumour weight inhibition when untreated control mean = 1.0 g): q.d., i.p., days 1, 5, 9 after inoculation, s.c. tumour, BDF1 mice; for Optimal dose: i.p. every fourth day for three total injections (days 1, 5, 9 after inoculation); for Delay in solid tumour growth to 1 g: paclitaxel at a non-toxic dose
[4] = test system: murine B16F10 melanoma ascites tumour; experiment: In vivo efficacy vs i.p. B16F10 melanoma ascites tumour; conditions: for Cure rate at optimal non-toxic dose / Optimal increase in life span (ILS): at non-toxic doses; for %ILS (group mean increase in lifespan) / MST (mean survival time ± s.d.) / Per cent cures (mice alive 60 days after inoculation) / Per cent toxicity (mice with premature death): q.d., i.p., days 1-5 after inoculation, BDF1 mice; for Efficacy against murine B16 ascites tumour compared with paclitaxel: mouse, in vivo
[5] = test system: BDF mice bearing B16F10 ascites tumours; conditions: […]
[6] = dose 12.5 mg kg-1 per day, q.d., i.p., days 1-5 after inoculation, s.c. xenograft, nude mice
[7] = dose 25 mg kg-1 per day, q.d., i.p., days 1-5 after inoculation, s.c. xenograft, nude mice
[8] = dose 50 mg kg-1 per day, q.d., i.p., days 1-5 after inoculation, s.c. xenograft, nude mice
[9] = dose 100 mg kg-1 per day, q.d., i.p., days 1-5 after inoculation, s.c. xenograft, nude mice
[10] = i.p. once daily for 5 consecutive days

## CC(=O)O[C@@H]1C2=C(C)[C@@H](OC(=O)[C@H](O)[C@@H](NC(=O)c3ccccc3)c3ccccc3)C[C@@](O)([C@@H](OC(=O)c3ccccc3)[C@@H]3[C@]4(OC(C)=O)CO[C@@H]4C[C@H](O)[C@@]3(C)[C@H]1O)C2(C)C [Compound A-85576, 9-dihydrotaxol]
B16F10
  IC50: 0.025 µg/mL (≈ 0.0292 µM)
A549
  IC50: 0.019 µg/mL (≈ 0.0222 µM)
HT-29
  IC50: 0.008 µg/mL (≈ 0.00935 µM)
[1]
  t1/2: 1.9 h
  Cmax: 40.32 ig ml-1
  Tmax: 0.58 h
  AUC: 75.62 ig per h ml-1
  AUC value (rounded): over 75 jg h-1 ml-1
  Cmax (rounded): 40 jg ml-1
  Serum concentrations compared with paclitaxel: greater than paclitaxel
[2]
  In vitro potency compared with paclitaxel: generally less than that of paclitaxel
[3]; [6]
  Delay (1.0 g) (footnote: delay to reach mean tumour mass = 0.5 g, compared with untreated): 1.6 days
  Per cent cures (mice with no palpable tumours, day 60): 0%
  Per cent toxicity: 0%
  TWI (per cent tumour weight inhibition when untreated control mean = 0.5 g): 31%
[3]; [7]
  Delay (1.0 g) (footnote: delay to reach mean tumour mass = 0.5 g, compared with untreated): 5.9 days
  Per cent cures (mice with no palpable tumours, day 60): 0%
  Per cent toxicity: 0%
  TWI (per cent tumour weight inhibition when untreated control mean = 0.5 g): 65%
[3]; [8]
  Delay (1.0 g) (footnote: delay to reach mean tumour mass = 0.5 g, compared with untreated): 12.4 days
  Per cent toxicity: 0%
  TWI (per cent tumour weight inhibition when untreated control mean = 0.5 g): 94%
[3]; [9]
  Delay (1.0 g) (footnote: delay to reach mean tumour mass = 0.5 g, compared with untreated): 21.1 days
  Per cent cures (mice with no palpable tumours, day 60): 60%
  Per cent toxicity: 0%
  TWI (per cent tumour weight inhibition when untreated control mean = 0.5 g): 98%
[3]
  Cure rate: 60%
  Delay in tumour growth compared with untreated controls: 21 days
P388
  IC50: 0.053 µg/mL (≈ 0.0619 µM)
Murine M109 solid tumour; dose 25 mg kg-1 per day
  Days (1.0 g): days to reach mean tumour mass = 1.0 g ± s.d.: 13.6+2.3 days
  Delay (1.0 g): delay to reach mean tumour mass = 1.0 g, compared with untreated: 1.6 days
  Per cent cures (mice with no palpable tumours, day 60): 0%
  Per cent toxicity: 0%
  TWI (per cent tumour weight inhibition when untreated control mean = 1.0 g): 34%
Murine M109 solid tumour; dose 50 mg kg-1 per day
  Days (1.0 g): days to reach mean tumour mass = 1.0 g ± s.d.: 14.1+3.2 days
  Delay (1.0 g): delay to reach mean tumour mass = 1.0 g, compared with untreated: 2.1 days
  Per cent cures (mice with no palpable tumours, day 60): 0%
  Per cent toxicity: 0%
  TWI (per cent tumour weight inhibition when untreated control mean = 1.0 g): 46%
Murine M109 solid tumour; dose 100 mg kg-1 per day
  Delay (1.0 g): delay to reach mean tumour mass = 1.0 g, compared with untreated: 10.5 days
  Per cent cures (mice with no palpable tumours, day 60): 0%
  Per cent toxicity: 0%
  TWI (per cent tumour weight inhibition when untreated control mean = 1.0 g): 90%
Murine M109 solid tumour
  Optimal dose: 100 mg kg-1 injection
  Delay in solid tumour growth to 1 g: 10.5 days
[4]; [10]
  Cure rate at optimal non-toxic dose: 0%
  Optimal increase in life span (ILS): 39%
  Optimal dose: 50 mg/kg/day
[4]; dose 25 mg kg-1 per day
  %ILS (group mean increase in lifespan): 21%
  MST (mean survival time ± s.d.): 23.9 ± 4.3 days
  Per cent cures (mice alive 60 days after inoculation): 0%
  Per cent toxicity (mice with premature death): 0%
[4]; dose 50 mg kg-1 per day
  %ILS (group mean increase in lifespan): 39%
  Per cent cures (mice alive 60 days after inoculation): 0%
  Per cent toxicity (mice with premature death): 0%
[4]; dose 100 mg kg-1 per day
  %ILS (group mean increase in lifespan): 46%
  Per cent cures (mice alive 60 days after inoculation): 0%
  Per cent toxicity (mice with premature death): 20%
[4]
  Efficacy against murine B16 ascites tumour compared with paclitaxel: less effective

## CC(=O)OC12COC1CC(O)C1(C)C(O)C(O)C3=C(C)C(OC(=O)C(O)C(NC(=O)c4ccccc4)c4ccccc4)CC(O)(C(OC(=O)c4ccccc4)C21)C3(C)C (stereo not drawn) [Compound A-86415, 10-deacetyl-9-dihydrotaxol]
B16F10
  IC50: 0.039 µg/mL (≈ 0.0479 µM)
A549
  IC50: 0.011 µg/mL (≈ 0.0135 µM)
HT-29
  IC50: 0.0019 µg/mL (≈ 0.00233 µM)
[5]
  MTD (q.d. days 1-5): greater than 100 mg kg-1 per day
[1]
  t1/2: 2.8 h
  Cmax: 11.19 ig ml-1
  Tmax: 1.40 h
  AUC: 29.81 ig per h ml-1
  AUC value (rounded): 30 jg h-1 ml-1
  Cmax (rounded): 11 jg ml-1
  Serum concentrations compared with paclitaxel: less than paclitaxel
[2]
  In vitro potency compared with paclitaxel: generally less than that of paclitaxel
[3]; [6]
  Delay (1.0 g) (footnote: delay to reach mean tumour mass = 0.5 g, compared with untreated): 0 days
  Per cent cures (mice with no palpable tumours, day 60): 20%
  Per cent toxicity: 0%
  TWI (per cent tumour weight inhibition when untreated control mean = 0.5 g): 27%
[3]; [7]
  Days to 1.0 g (footnote: days to reach mean tumour mass = 0.5 g ± s.d.): 33.3 + 7.6 days
  Delay (1.0 g) (footnote: delay to reach mean tumour mass = 0.5 g, compared with untreated): 5.4 days
  Per cent cures (mice with no palpable tumours, day 60): 10%
  Per cent toxicity: 0%
  TWI (per cent tumour weight inhibition when untreated control mean = 0.5 g): 73%
[3]; [8]
  Delay (1.0 g) (footnote: delay to reach mean tumour mass = 0.5 g, compared with untreated): 14.7 days
  Per cent cures (mice with no palpable tumours, day 60): 30%
  Per cent toxicity: 0%
  TWI (per cent tumour weight inhibition when untreated control mean = 0.5 g): 99%
[3]; [9]
  Delay (1.0 g) (footnote: delay to reach mean tumour mass = 0.5 g, compared with untreated): 33.1 days
  Per cent cures (mice with no palpable tumours, day 60): 70%
  Per cent toxicity: 0%
  TWI (per cent tumour weight inhibition when untreated control mean = 0.5 g): 100%
[3]
  Cure rate: 70%
  Delay in tumour growth compared with untreated controls: 33 days
P388
  IC50: 0.014 µg/mL (≈ 0.0172 µM)
Murine M109 solid tumour; dose 25 mg kg-1 per day
  Days (1.0 g): days to reach mean tumour mass = 1.0 g ± s.d.: 12.0+0 days
  Delay (1.0 g): delay to reach mean tumour mass = 1.0 g, compared with untreated: 0 days
  Per cent cures (mice with no palpable tumours, day 60): 0%
  Per cent toxicity: 0%
  TWI (per cent tumour weight inhibition when untreated control mean = 1.0 g): 10%
Murine M109 solid tumour; dose 50 mg kg-1 per day
  Days (1.0 g): days to reach mean tumour mass = 1.0 g ± s.d.: 12.0+0 days
  Delay (1.0 g): delay to reach mean tumour mass = 1.0 g, compared with untreated: 0 days
  Per cent cures (mice with no palpable tumours, day 60): 0%
  Per cent toxicity: 0%
  TWI (per cent tumour weight inhibition when untreated control mean = 1.0 g): 19%
Murine M109 solid tumour; dose 100 mg kg-1 per day
  Delay (1.0 g): delay to reach mean tumour mass = 1.0 g, compared with untreated: 5.1 days
  Per cent cures (mice with no palpable tumours, day 60): 0%
  Per cent toxicity: 0%
  TWI (per cent tumour weight inhibition when untreated control mean = 1.0 g): 79%
Murine M109 solid tumour
  Optimal dose: 100 mg kg-1 injection
  Delay in solid tumour growth to 1 g: 5.1 days
[4]; [10]
  Cure rate at optimal non-toxic dose: 10%
  Optimal increase in life span (ILS): 83%
[4]; dose 25 mg kg-1 per day
  %ILS (group mean increase in lifespan): 52%
  Per cent cures (mice alive 60 days after inoculation): 0%
  Per cent toxicity (mice with premature death): 0%
[4]; dose 50 mg kg-1 per day
  %ILS (group mean increase in lifespan): 83%
  MST (mean survival time ± s.d.): 36.1 ± 4.5 days
  Per cent cures (mice alive 60 days after inoculation): 10%
  Per cent toxicity (mice with premature death): 0%
[4]; dose 100 mg kg-1 per day
  %ILS (group mean increase in lifespan): 77%
  Per cent cures (mice alive 60 days after inoculation): 0%
  Per cent toxicity (mice with premature death): 0%
[4]
  Efficacy against murine B16 ascites tumour compared with paclitaxel: as effective as paclitaxel
